Assay results reported in patent publication US9302999B2, “Substituted triazoles as herbicides” (E. I. DU PONT DE NEMOURS AND COMPANY, priority 2012, dated 2016).

How the values were obtained:
Format in all cases: in vivo
[1] = tested on: panicum, fall (fall panicum, Panicum dichotomiflorum); assay: Test E pre-/postemergence: panicum, fall; conditions: scale 0 to 100
From the text: (§1) Seeds of plant species selected from corn (Zea mays), soybean (Glycine max), velvetleaf (Abutilon theophrasti), lambsquarters (Chenopodium album), poinsettia, wild (wild poinsettia, Euphorbia heterophylla), pigweed, palmer (palmer pigweed, Amaranthus palmeri), waterhemp (common waterhemp, Amaranthus rudis), smartweed (ladysthumb smartweed, Polygonum persicaria), surinam grass (Brachiaria decumbens), crabgrass, large (large crabgrass, Digitaria sanguinalis), crabgrass, Brazil (Brazilian crabgrass, Digitaria horizontalis), panicum, fall (fall panicum, Panicum dichotomiflorum), foxtail, giant (giant foxtail, Setaria faberii), foxtail, green (green foxtail, Setaria viridis), goosegrass (Eleusine indica), johnsongrass (Sorghum halepense), ragweed (common ragweed, Ambrosia elation), barnyardgrass (Echinochloa crus-galli), sandbur (southern sandbur, Cenchrus echinatus), arrowleaf sida (Sida rhombifolia), ryegrass, Italian (Italian ryegrass, Lolium multiflorum), dayflower, (VA) (Virginia dayflower, Commelina virginica), field bindweed (Convolvulus arvensis), cocklebur (common cocklebur, Xanthium strumarium), morningglory (Ipomoea coccinea), nightshade (eastern black nightshade, Solanum ptycanthum), kochia (Kochia scoparia), nutsedge, yellow (yellow nutsedge, Cyperus esculentus) and beggarticks (hairy beggarticks, Bidens pilosa) were planted into a silt loam soil and treated preemergence with test chemicals formulated in a non-phytotoxic solvent mixture which included a surfactant. At the same time, plants selected from these crop and weed species were planted in pots containing a growing medium comprising spaghnum peat moss, vermiculite, wetting agent and starter nutrients and treated with postemergence applications of some of the test chemicals formulated in the same manner. Plants ranged in height from 2 to 18 cm for postemergence treatments (1- to 4-leaf stage).
(§2) Treated plants and controls were maintained in a greenhouse for 14 to 21 days, after which time all species were compared to controls and visually evaluated. Plant response ratings, summarized in Table E, are based on a scale of 0 to 100 where 0 is no effect and 100 is complete control. A dash (-) response means no test result.

[2] = tested on: foxtail, green (green foxtail, Setaria viridis); assay: Test E pre-/postemergence: foxtail, green; conditions: Preemergence, scale 0 to 100
From the text: as §1, §2

[3] = tested on: crabgrass, large (large crabgrass, Digitaria sanguinalis); assay: Test E pre-/postemergence: crabgrass, large; conditions: Preemergence, scale 0 to 100
From the text: as §1, §2

[4] = tested on: corn (Zea mays); assay: Test E pre-/postemergence: corn; conditions: scale 0 to 100
From the text: as §1, §2

| SMILES | Plant response rating: Panicum, Fall ([1]; Preemergence, 8 g ai/ha) | Plant response rating: Panicum, Fall ([1]; Preemergence, 16 g ai/ha) | Plant response rating: Panicum, Fall ([1]; Preemergence, 31 g ai/ha) | Plant response rating: Panicum, Fall ([1]; Preemergence, 62 g ai/ha) | Plant response rating: Panicum, Fall ([1]; Preemergence, 125 g ai/ha) | Plant response rating: Foxtail, Green ([2]; 8 g ai/ha) | Plant response rating: Foxtail, Green ([2]; 16 g ai/ha) | Plant response rating: Foxtail, Green ([2]; 31 g ai/ha) | Plant response rating: Foxtail, Green ([2]; 62 g ai/ha) | Plant response rating: Foxtail, Green ([2]; 125 g ai/ha) | Plant response rating: Crabgrass, Large ([3]; 8 g ai/ha) | Plant response rating: Crabgrass, Large ([3]; 16 g ai/ha) | Plant response rating: Crabgrass, Large ([3]; 31 g ai/ha) | Plant response rating: Crabgrass, Large ([3]; 62 g ai/ha) | Plant response rating: Crabgrass, Large ([3]; 125 g ai/ha) | Plant response rating: Corn ([4]; Preemergence, 8 g ai/ha) | Plant response rating: Corn ([4]; Preemergence, 16 g ai/ha) | Plant response rating: Corn ([4]; Preemergence, 31 g ai/ha) | Plant response rating: Corn ([4]; Preemergence, 62 g ai/ha) | Plant response rating: Corn ([4]; Preemergence, 125 g ai/ha) | other results |
| --- | --- | --- | --- | --- | --- | --- | --- | --- | --- | --- | --- | --- | --- | --- | --- | --- | --- | --- | --- | --- | --- |
| Cc1nn(-c2ccc(F)cc2)nc1Cc1ccnc(C(F)(F)F)c1 [Compound 16, 4-[[2-(4-fluorophenyl)-5-methyl-2H-1,2,3-triazol-4-yl]methyl]-2-(trifluoromethyl)pyridine] | 0 | 70 | 100 | 100 | 100 | 60 | 90 | 90 | 100 | 100 | 0 | 5 | 5 | 90 | 90 | 0 | 0 | 0 | 20 | 20 |  |
| Cc1nn(-c2ccc(C(F)(F)F)cc2)nc1Cc1ccnc(C(F)(F)F)c1 [Compound 47, 4-[[5-methyl-2-[4-(trifluoromethyl)phenyl]-2H-1,2,3-triazol-4-yl]methyl]-2-(trifluoromethyl)pyridine] |  | 100 | 100 | 100 | 100 |  | 85 | 100 | 100 | 100 |  | 20 | 75 | 100 | 100 |  | 0 | 15 | 20 | 20 | Plant response rating: Panicum, Fall ([1]; Postemergence, 250 g ai/ha): 40; Plant response rating: Panicum, Fall ([1]; Postemergence, 16 g ai/ha): 10; Plant response rating: Panicum, Fall ([1]; Postemergence, 31 g ai/ha): 20; Plant response rating: Panicum, Fall ([1]; Postemergence, 62 g ai/ha): 30; Plant response rating: Panicum, Fall ([1]; Postemergence, 125 g ai/ha): 30; Plant response rating: Panicum, Fall ([1]; Preemergence, 250 g ai/ha): 100; Plant response rating: Foxtail, Green ([2]; 250 g ai/ha): 100; Plant response rating: Crabgrass, Large ([3]; 250 g ai/ha): 100; Plant response rating: Corn ([4]; Postemergence, 250 g ai/ha): 20; Plant response rating: Corn ([4]; Postemergence, 16 g ai/ha): 10; Plant response rating: Corn ([4]; Postemergence, 31 g ai/ha): 15; Plant response rating: Corn ([4]; Postemergence, 62 g ai/ha): 20; Plant response rating: Corn ([4]; Postemergence, 125 g ai/ha): 20; Plant response rating: Corn ([4]; Preemergence, 250 g ai/ha): 25 |
| Cc1nn(-c2ccc(F)cc2)nc1Oc1ccnc(C(F)(F)F)c1 [Compound 129, 4-[[2-(4-fluorophenyl)-5-methyl-2H-1,2,3-triazol-4-yl]oxy]-2-(trifluoromethyl)pyridine] | 0 | 35 | 98 | 100 | 100 | 0 | 60 | 100 | 100 | 100 | 0 | 10 | 80 | 100 | 100 | 0 | 0 | 0 | 10 | 10 |  |
